Reference: patent US10882826B2, “Quinolinone or quinazolinone comprising antibiofilm compositions, compounds and methods and uses relating thereto” (University College Cork—National University of Ireland, priority 2015, dated 2021)

Assays:
mammalian cells = experiment: Cytotoxicity towards mammalian cells (summary statement); assay type: cell-based
Experimental: (§1) Lactate dehydrogenase (LDH) release from IB3 lung epithelial cells was assayed as a measure of cytotoxicity using an LDH colorimetric kit (Roche) according to manufacturers' instructions. Briefly, IB3-1 cells were seeded onto 96 well plates and treated with methanol (control) and test compounds (100 μM). Following 16 hr incubation at 37° C. and 5% CO2, supernatants were removed and added to catalyst reaction mixture in a fresh plate and further incubated at 37° C. and 5% CO2 for 30 mins to allow for colour development. After this period, the plate was analysed on an ELISA plate reader at OD490 nm. Cytotoxicity was expressed as a percentage of cells treated with 0.1% (v/v) Triton (100% cytotoxicity). The results are detailed in table 3:
(§2) The above experiments were repeated, testing some compounds against further cell lines (A549, DU145 and HeLa).

[1] = test system: A. fumigatus CFBRC3 biofilm; experiment: A. fumigatus biofilm assay, clinical source CFBRC3; assay type: cell-based, Aspergillus fumigatus; settings: biofilm from clinical source CFBRC3
Experimental: (§3) A. fumigatus Af293 was grown on SDA in 100 ml cell culture flasks at 37° C. for 3-4 days. Conidia were harvested by flooding the surface of the agar plates with 5 ml PBS (Oxoid) containing 0.025% (v/v) Tween 20 and gently moving the liquid over the surface of the fungal lawn. The conidial suspension was transferred into a 25 ml sterile container and conidia were counted using a Neubauer haemocytometer and light microscope. Conidia were adjusted to the required concentration in RPMI 1640 (Sigma) buffered to pH 7.0 with 0.165 M MOPS immediately prior to biofilm formation analysis.
(§4) To assess biofilm formation, counted A. fumigatus spores (1×10^5) in MOPS buffered RPMI 1640 were inoculated into 24- and 96-well plates and grown overnight in the presence of 100 μM HHQ, PQS and the test compounds. After 24 hrs, the media was removed and the biofilm washed twice with distilled water after which 0.1% crystal violet (CV) was added to each well and allowed to stand for 1 hr at room temperature. The crystal violet was removed and all wells washed in a water bath by inversion. Ethanol was added to each well to solubilise biofilms after which samples were read on a spectrophotometer at Abs595 nm.
(§5) The above experiments were carried out using biofilms grown from laboratory sources of A. fumigatus. The experiments were repeated to test some compounds against biofilms grown from three different clinical sources of A. fumigatus (CFBRC1, CFBRC2 and CFBRC3. The results are shown in table 8: […]

Pseudomonus aeruginosa = experiment: Virulence of Pseudomonas aeruginosa (summary statement); assay type: cell-based; settings: unlike HHQ and PQS
Experimental: The virulence of compounds B1, B2, C2, C3, C4, C5, C6, C8 and C11 towards P. aeruginosa was assessed using the following method:
P. aeruginosa strains were cultured as described above for 24 hr, with the addition of test compounds (10 μM). Cultures were centrifuged at 4000 rpm for 10 minutes and the cell free supernatant (5 ml) removed. Chloroform (3 ml) was added, and mixed by vortex. After centrifugation at 4000 rpm for 5 mins, the lower aqueous phase was transferred to 0.2 M HCl (2 ml). Samples were mixed by vortex and centrifuged at 4000 rpm for 5 mins to separate the phases. An aliquot of the top phase (1 ml) was removed and spectrophotmetrically analysed at OD570 nm. Phenazine production was calculated using the following formula: OD570 nm×2×17.072 and the units expressed in μg/ml. […]

[2] = test system: A. fumigatus CFBRC1 biofilm; experiment: A. fumigatus biofilm assay, clinical source CFBRC1; assay type: cell-based, Aspergillus fumigatus; settings: biofilm from clinical source CFBRC1
Experimental: as §3, §4, §5

[3] = test system: A. fumigatus CFBRC2 biofilm; experiment: A. fumigatus biofilm assay, clinical source CFBRC2; assay type: cell-based, Aspergillus fumigatus; settings: biofilm from clinical source CFBRC2
Experimental: as §3, §4, §5

[4] = test system: A. fumigatus Af293 biofilm; experiment: A. fumigatus biofilm assay (crystal violet); assay type: cell-based, Aspergillus fumigatus; settings: for effectiveness against fungal biofilms formed by Aspergillus fumigatus (in words): summary statement
Experimental: A. fumigatus Af293 was routinely grown on Sabouraud dextrose agar (SDA) in 100 ml cell culture flasks at 37° C. for 3-4 days until a lawn of fungal growth was observed.
as §3, §4

DU145 = experiment: LDH release cytotoxicity, DU145; assay type: cell-based; settings: DU145 cell line; percentage of 0.1% Triton
Experimental: as §1, §2

SMILES	cytotoxicity towards mammalian cells (in words) (mammalian cells)	Relative absorbance compared to MeOH (=1), Mean [1]	effect on virulence of Pseudomonus aeruginosa (in words) (Pseudomonus aeruginosa)	Relative absorbance compared to MeOH (=1), Mean [2]	Relative absorbance compared to MeOH (=1), Mean [3]	Relative absorbance at 595 nm compared to methanol control, Mean ([4]; A. fumigatus Af293 biofilm, 100 μM, 24 hrs, crystal violet)	effectiveness against fungal biofilms formed by Aspergillus fumigatus (in words) [4]	Cytotoxicity, Mean (LDH release) (DU145) [%]
CCCCCCCc1nc2ccccc2c(=O)n1N [Compound C2]	reduced cytotoxicity	0.292	do not increase the virulence	0.310	0.304	0.37	effective	
CCCCCCCc1cc(=O)c2cc(Cl)ccc2[nH]1 [Compound C4]	reduced cytotoxicity		do not increase the virulence				effective	24.42
CCCCCCCc1cc(=O)c2cccc(Cl)c2[nH]1 [Compound C5]	reduced cytotoxicity	0.483	do not increase the virulence	0.297	0.359			
